Test results taken from ChEMBL document CHEMBL5661979, “Pharmacological inhibition of BMK1 suppresses tumor growth through promyelocytic leukemia protein” (Cancer Cell, 2010).

Assays:
Format in all cases: subcellular
[1] = molecular target: Serine/threonine-protein kinase D2 (Homo sapiens, UniProt Q9BZL6); test: Inhibition of PKD2 in human HeLa cells lysate pre incubated for 15 mins followed by ADP acyl phosphate probe addition and measured after 10 mins by LC-MS/MS analysis
[2] = molecular target: T1, Mitogen-activated protein kinase kinase kinase 7 (Homo sapiens) (UniProt O43318); test: Inhibition of TAK1 in human HeLa cells lysate at 2 uM pre incubated for 15 mins followed by ATP acyl phosphate probe addition and measured after 10 mins by LC-MS/MS analysis relative to control; conditions: time 25.0 min
T1 sequence (whole entry): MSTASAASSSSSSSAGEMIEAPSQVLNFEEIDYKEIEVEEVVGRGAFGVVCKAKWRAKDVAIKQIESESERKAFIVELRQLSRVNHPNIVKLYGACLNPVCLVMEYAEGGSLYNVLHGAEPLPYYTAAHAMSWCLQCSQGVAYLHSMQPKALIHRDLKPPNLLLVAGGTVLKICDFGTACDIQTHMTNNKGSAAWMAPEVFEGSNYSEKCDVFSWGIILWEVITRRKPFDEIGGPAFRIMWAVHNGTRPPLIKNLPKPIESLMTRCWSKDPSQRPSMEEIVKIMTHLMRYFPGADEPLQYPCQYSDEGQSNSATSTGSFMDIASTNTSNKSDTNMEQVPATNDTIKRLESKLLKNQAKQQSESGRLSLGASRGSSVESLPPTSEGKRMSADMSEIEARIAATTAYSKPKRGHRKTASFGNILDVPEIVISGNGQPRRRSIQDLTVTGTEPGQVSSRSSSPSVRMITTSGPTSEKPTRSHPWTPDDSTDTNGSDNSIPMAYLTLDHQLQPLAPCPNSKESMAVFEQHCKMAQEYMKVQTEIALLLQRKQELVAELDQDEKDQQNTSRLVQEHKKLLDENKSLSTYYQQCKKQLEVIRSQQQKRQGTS

[3] = molecular target: MAP/microtubule affinity-regulating kinase 3 (Homo sapiens, UniProt P27448); test: Inhibition of MARK3 in human HeLa cells lysate pre incubated for 15 mins followed by ADP acyl phosphate probe addition and measured after 10 mins by LC-MS/MS analysis
Sequence of MAP/microtubule affinity-regulating kinase 3 (P27448 whole entry): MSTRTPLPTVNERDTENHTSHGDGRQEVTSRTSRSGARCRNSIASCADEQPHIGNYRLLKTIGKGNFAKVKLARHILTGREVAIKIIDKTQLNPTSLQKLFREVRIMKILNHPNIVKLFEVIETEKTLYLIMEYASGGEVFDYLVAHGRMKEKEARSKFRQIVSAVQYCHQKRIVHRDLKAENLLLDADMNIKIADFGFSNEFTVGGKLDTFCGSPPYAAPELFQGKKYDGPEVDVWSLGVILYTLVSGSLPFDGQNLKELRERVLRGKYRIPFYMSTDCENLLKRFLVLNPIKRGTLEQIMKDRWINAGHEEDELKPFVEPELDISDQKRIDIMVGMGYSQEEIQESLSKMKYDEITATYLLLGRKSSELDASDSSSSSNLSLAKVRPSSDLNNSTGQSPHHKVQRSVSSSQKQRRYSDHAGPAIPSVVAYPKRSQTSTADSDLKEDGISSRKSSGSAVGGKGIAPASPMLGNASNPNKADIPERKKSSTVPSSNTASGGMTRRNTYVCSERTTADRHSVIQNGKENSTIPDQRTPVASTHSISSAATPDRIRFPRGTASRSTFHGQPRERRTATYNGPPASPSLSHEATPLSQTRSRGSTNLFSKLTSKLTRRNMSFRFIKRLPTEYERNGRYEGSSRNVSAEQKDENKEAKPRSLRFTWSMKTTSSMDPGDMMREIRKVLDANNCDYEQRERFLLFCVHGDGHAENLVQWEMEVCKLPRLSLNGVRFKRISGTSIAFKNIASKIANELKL

[4] = Inhibition of HGK/MINK/TNIK in human HeLa cells lysate pre incubated for 15 mins followed by ADP acyl phosphate probe addition and measured after 10 mins by LC-MS/MS analysis
[5] = molecular target: Tyrosine-protein kinase Fer (Homo sapiens, UniProt P16591); test: Inhibition of FER in human HeLa cells lysate at 2 uM pre incubated for 15 mins followed by ATP acyl phosphate probe addition and measured after 10 mins by LC-MS/MS analysis relative to control; conditions: time 25.0 min
Sequence of Tyrosine-protein kinase Fer (P16591 whole entry, looked up): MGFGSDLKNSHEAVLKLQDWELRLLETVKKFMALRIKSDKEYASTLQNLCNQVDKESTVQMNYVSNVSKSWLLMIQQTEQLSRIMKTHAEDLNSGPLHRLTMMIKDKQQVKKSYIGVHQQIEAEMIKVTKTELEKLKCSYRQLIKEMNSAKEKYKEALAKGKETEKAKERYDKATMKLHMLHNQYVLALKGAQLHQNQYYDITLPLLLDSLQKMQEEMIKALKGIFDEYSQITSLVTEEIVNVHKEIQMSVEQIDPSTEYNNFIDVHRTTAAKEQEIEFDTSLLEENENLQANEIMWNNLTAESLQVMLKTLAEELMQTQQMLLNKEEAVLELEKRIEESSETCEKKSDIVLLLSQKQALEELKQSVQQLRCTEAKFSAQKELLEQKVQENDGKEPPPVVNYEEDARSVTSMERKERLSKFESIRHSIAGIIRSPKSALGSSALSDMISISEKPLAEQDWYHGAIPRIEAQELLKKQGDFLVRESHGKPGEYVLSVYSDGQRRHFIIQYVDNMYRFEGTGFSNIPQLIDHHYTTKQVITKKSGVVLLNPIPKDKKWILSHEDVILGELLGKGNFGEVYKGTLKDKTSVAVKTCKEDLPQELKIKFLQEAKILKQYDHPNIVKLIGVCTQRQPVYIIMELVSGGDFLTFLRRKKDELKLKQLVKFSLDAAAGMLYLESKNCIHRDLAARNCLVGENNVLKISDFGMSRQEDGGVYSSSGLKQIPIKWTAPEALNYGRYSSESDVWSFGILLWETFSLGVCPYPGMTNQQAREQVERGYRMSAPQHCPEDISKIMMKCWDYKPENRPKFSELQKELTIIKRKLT

[6] = molecular target: T2, Dual specificity mitogen-activated protein kinase kinase 5 (Homo sapiens) (UniProt Q13163); test: Inhibition of MAP2K5 in human HeLa cells lysate at 2 uM pre incubated for 15 mins followed by ADP acyl phosphate probe addition and measured after 10 mins by LC-MS/MS analysis relative to control; conditions: time 25.0 min
T2 sequence (whole entry): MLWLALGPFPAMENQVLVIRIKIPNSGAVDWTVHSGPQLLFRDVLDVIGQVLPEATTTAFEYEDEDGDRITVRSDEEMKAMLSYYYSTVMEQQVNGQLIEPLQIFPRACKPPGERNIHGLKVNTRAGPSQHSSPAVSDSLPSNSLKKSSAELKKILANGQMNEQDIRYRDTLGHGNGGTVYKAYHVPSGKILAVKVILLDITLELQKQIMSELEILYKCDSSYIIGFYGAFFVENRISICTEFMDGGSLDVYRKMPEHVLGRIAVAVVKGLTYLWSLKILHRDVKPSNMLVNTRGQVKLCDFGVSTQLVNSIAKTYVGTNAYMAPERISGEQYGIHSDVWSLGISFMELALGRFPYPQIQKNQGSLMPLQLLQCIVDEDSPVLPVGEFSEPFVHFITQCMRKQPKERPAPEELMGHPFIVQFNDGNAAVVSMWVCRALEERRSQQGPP

[7] = molecular target: Mitogen-activated protein kinase kinase kinase 5 (Homo sapiens) (UniProt Q99683); test: Inhibition of MAP3K5 in human HeLa cells lysate at 10 uM pre incubated for 15 mins followed by ATP acyl phosphate probe addition and measured after 10 mins by LC-MS/MS analysis relative to control; conditions: time 25.0 min
Sequence of Mitogen-activated protein kinase kinase kinase 5 (Homo sapiens) (Q99683 whole entry): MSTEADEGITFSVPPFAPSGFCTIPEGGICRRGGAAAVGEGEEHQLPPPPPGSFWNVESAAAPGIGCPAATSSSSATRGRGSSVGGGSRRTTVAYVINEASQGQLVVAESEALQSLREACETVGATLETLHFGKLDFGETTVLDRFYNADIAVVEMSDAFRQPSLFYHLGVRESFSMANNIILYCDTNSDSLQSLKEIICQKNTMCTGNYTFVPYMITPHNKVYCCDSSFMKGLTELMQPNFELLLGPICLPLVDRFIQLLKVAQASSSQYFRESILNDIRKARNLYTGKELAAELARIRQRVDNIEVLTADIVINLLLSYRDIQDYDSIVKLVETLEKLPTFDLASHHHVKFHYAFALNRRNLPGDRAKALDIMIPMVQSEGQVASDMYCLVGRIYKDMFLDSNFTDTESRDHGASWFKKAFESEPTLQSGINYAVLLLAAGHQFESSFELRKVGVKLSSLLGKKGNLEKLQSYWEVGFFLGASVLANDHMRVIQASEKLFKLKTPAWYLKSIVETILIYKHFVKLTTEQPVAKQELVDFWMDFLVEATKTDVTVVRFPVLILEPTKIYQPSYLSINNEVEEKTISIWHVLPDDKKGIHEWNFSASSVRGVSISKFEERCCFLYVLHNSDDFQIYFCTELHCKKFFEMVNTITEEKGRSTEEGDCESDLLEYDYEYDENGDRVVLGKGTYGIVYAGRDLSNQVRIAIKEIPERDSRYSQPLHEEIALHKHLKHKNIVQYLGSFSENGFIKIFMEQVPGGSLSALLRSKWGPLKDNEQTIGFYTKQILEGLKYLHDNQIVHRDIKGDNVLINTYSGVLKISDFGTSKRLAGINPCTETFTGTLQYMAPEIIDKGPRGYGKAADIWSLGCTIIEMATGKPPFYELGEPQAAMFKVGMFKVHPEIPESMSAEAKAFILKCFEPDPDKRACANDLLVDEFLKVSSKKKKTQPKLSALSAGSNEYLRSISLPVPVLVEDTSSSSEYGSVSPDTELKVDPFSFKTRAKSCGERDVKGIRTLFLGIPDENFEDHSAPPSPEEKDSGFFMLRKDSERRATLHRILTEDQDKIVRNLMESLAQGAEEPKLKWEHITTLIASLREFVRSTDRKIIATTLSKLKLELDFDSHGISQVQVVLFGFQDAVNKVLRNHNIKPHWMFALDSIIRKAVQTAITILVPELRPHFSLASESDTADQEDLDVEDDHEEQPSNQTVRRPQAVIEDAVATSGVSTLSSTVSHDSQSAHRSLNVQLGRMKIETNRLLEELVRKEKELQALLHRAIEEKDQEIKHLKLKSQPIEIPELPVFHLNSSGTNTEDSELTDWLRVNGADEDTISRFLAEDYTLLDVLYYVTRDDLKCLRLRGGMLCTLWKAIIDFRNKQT

[8] = molecular target: T3, Serine/threonine-protein kinase 4 (Homo sapiens) (UniProt Q13043); test: Inhibition of MST1 in human HeLa cells lysate at 50 uM pre incubated for 15 mins followed by ADP acyl phosphate probe addition and measured after 10 mins by LC-MS/MS analysis relative to control; conditions: time 25.0 min
T3 sequence (whole entry): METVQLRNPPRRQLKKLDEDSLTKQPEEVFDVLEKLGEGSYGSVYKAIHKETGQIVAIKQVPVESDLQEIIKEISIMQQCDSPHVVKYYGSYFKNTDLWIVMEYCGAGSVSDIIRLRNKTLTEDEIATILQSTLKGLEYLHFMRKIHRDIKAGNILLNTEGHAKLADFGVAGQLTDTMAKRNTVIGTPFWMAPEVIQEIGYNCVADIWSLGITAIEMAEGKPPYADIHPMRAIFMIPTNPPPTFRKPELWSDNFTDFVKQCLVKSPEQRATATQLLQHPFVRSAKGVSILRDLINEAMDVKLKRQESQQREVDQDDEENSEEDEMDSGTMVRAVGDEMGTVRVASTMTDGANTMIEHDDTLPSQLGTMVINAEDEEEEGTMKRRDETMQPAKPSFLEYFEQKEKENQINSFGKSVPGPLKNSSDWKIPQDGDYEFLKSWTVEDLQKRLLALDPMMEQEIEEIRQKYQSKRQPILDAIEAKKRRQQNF

[9] = molecular target: T4, Serine/threonine-protein kinase Chk1 (Homo sapiens) (UniProt O14757); test: Inhibition of CHK1 in human HeLa cells lysate at 2 uM pre incubated for 15 mins followed by ATP acyl phosphate probe addition and measured after 10 mins by LC-MS/MS analysis relative to control; conditions: time 25.0 min
T4 sequence (whole entry): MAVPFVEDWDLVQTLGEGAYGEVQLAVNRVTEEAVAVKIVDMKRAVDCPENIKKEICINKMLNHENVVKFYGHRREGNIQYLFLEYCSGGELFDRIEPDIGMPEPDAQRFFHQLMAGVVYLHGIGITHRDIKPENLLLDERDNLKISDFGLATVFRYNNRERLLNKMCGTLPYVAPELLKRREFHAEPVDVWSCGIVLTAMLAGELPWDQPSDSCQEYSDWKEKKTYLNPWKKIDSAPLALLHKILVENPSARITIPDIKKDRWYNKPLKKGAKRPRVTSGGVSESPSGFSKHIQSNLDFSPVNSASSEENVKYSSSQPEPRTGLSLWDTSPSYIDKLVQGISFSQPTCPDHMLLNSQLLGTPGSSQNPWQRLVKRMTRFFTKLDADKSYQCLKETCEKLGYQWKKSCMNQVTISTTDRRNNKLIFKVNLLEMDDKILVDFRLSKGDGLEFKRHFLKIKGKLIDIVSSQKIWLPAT

Sequence of Serine/threonine-protein kinase D2 (Q9BZL6 whole entry): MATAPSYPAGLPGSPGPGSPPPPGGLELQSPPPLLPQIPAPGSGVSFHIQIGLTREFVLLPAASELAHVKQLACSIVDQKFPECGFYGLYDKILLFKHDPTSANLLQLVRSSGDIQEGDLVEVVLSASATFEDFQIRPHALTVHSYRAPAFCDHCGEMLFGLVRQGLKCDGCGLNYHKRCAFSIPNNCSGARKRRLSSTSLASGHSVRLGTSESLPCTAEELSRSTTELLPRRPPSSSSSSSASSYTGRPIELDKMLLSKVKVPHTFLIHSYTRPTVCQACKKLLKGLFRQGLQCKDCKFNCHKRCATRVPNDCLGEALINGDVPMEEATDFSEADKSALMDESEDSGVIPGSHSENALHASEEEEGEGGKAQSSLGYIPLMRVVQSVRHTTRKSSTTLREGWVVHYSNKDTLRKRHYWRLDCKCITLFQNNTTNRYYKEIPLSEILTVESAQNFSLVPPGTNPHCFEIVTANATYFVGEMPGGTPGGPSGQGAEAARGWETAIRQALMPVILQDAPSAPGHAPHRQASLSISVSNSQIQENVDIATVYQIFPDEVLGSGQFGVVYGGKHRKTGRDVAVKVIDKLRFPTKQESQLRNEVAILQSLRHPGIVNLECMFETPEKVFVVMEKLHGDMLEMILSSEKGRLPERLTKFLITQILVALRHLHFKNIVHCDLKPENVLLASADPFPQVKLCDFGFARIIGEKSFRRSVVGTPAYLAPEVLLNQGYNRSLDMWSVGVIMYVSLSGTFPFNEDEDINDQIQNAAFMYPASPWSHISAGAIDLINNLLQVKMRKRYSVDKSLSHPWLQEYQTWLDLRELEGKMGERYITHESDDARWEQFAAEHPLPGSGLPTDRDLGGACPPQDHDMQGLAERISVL

Compound: CCOc1cc(N2CCC(O)CC2)ccc1Nc1ncc2c(n1)N(C)c1ccccc1C(=O)N2C
- IC50 [1]: > 50 µM
- inhibition [2]: -4.8%
- IC50 [3]: > 50 µM
- IC50 [4]: > 50 µM
- inhibition [5]: 8%
- inhibition [6]: 19.1%
- inhibition [7]: 12.5%
- inhibition [8]: 10.2%
- inhibition [9]: 5.4%
